# Test results published in patent publication US20260234464A1, “POLYALKYL PHOSPHONATED POLYOL ETHER BASED SCALE INHIBITORS” (ChampionX LLC, priority 2023, published 2026).
# Experiment: static efficiency test of sulfate scale inhibition
# Details: 90° C., one hour after mixing anion and cation brine 1:1 (v/v), Ba2+ in solution; for inhibition efficiency, Brine A: SI dosage 1 ppm; for inhibition efficiency, Brine B: SI dosage 7.5 ppm; for inhibition efficiency, Brine C: SI dosage 5 ppm; for inhibition efficiency, Brine D: SI dosage 30 ppm
# Experimental: Anion brine and cation brines A, B, C, and D were prepared according to Table 1. The preheated anion brine and cation brine were mixed at 1:1 (v/v) ratio to achieve the targeted concentration. Briefly. In the blank test, no scale inhibitor (SI) was added, but a known amount of various SI was added to other test bottles to understand the performance of various SIs. In the scale inhibition tests, inhibition performance or inhibition efficiency at 90° C., especially for barite inhibition at one hour after mixing of anion and cation brine with and without presence of SI was determined using the following equation:
# [formula] • At where: • Ca is the concentration (mg/L) of Ba^2+ in solution after the one-hour test with scale inhibitor. • Cb is the concentration (mg/L) of Ba^2+ in solution in the blank after the one-hour test (without scale inhibitor). • Co is the concentration (mg/L) of the resulting Ba^2+ in synthetic water.
# The SI dosages in Brine A, B, C and […] was 1, 7.5, 5, and 30 ppm, respectively.
Structure (SMILES),"inhibition efficiency, Brine A","inhibition efficiency, Brine B","inhibition efficiency, Brine C","inhibition efficiency, Brine D"
"O=P(O)(O)CN(CCO)CC(O)COCC(O)C(OCC(O)CN(CCO)CP(=O)(O)O)C(O)C(COCC(O)CN(CCO)CP(=O)(O)O)OCC(O)CN(CCO)CP(=O)(O)O (stereo not shown) [Example 3, 10,12-bis(2-hydroxy-3-((2-hydroxyethyl)(phosphonomethyl)amino)propoxy)-3,18-bis(phosphonomethyl)-7,14-dioxa-3,18-diazaicosane-1,5,9,11,16,20-hexaol]",48%,36%,71%,5%
"O=P(O)(O)CN(CC(O)COCCCCOCC(O)CN(CP(=O)(O)O)CP(=O)(O)O)CP(=O)(O)O (stereo not shown) [Example 6, 3,3-(butane-1,4-diylbis(oxy))bis(1-(bis(phosphonomethyl))propan-2-ol)]",47%,63%,98%,6%
"O=P(O)(O)CN(CCN(CP(=O)(O)O)CP(=O)(O)O)CCN(CP(=O)(O)O)CP(=O)(O)O [DTPMP, diethylenetriamine penta(methylene phosphonic acid), reference compound]",94%,77%,100%,24%
CN(CC(O)COCC(O)C(OCC(O)CN(C)CP(=O)(O)O)C(O)C(COCC(O)CN(C)CP(=O)(O)O)OCC(O)CN(C)CP(=O)(O)O)CP(=O)(O)O (stereo not shown) [Example 4],23%,7%,5%,2%
"O=P(O)(O)CN(CC(O)COCC(O)C(OCC(O)CN(CP(=O)(O)O)CP(=O)(O)O)C(O)C(COCC(O)CN(CP(=O)(O)O)CP(=O)(O)O)OCC(O)CN(CP(=O)(O)O)CP(=O)(O)O)CP(=O)(O)O (stereo not shown) [Example 1, 1,3,5,6-Tetrakis{3-[bis(phosphonomethyl)amino]-2-hydroxypropoxy}-2,4-hexandiol]",57%,88%,67%,42%
O=P(O)(O)CN(CC(O)COCC(CO)OCC(O)CN(CP(=O)(O)O)CP(=O)(O)O)CP(=O)(O)O (stereo not shown) [Example 5],42%,86%,86%,42%
"O=P(O)(O)CN(CCNCC(O)COCC(O)C(OCC(O)CNCCN(CP(=O)(O)O)CP(=O)(O)O)C(O)C(COCC(O)CNCCN(CP(=O)(O)O)CP(=O)(O)O)OCC(O)CNCCN(CP(=O)(O)O)CP(=O)(O)O)CP(=O)(O)O (stereo not shown) [Example 2, 12,14-bis(3-((2-(bis(phosphonomethyl)amino)ethyl)amino)-2-hydroxypropoxy)-2,23-(bis(phosphonomethyl)amino)-9,16-dioxa-2,5,20,23-tetraazatetracosane-7,11,13,18-tetraol]",100%,100%,84%,83%
